Source: patent publication US5753789A, “Oligonucleotides containing L-nucleosides” (priority 1996, dated 1998)
Read-outs that look alike come from different tables or passages of the source.

Experiments:
[1] = Cytotoxicity in H1 cells (cell count); type: cell-based; details: human
Description: (§1) Inhibitory effect of compounds on EBV: The CD50 was performed by
exposing H1 cells to different concentrations of the compounds in normal
growth medium at 37° C. for 72 hours; the cells were then counted
and compared with controls. H1 cells were treated for 5 days and the […]

[2] = tested on: EBV; experiment: Inhibitory effect of compounds on EBV (virus production in H1 cells, bioassay of EBV DP activity in Raji cells); type: cell-based, Epstein-Barr virus; details: for Therapeutic Index (CD50/ID90): CD50 in H1 cells / ID90 for EBV; for IC90: human gammaherpesvirus 4, Raji, 120 h, EBV, H1 cells treated for 5 days, bioassay, read-out: ID90 (the source's name)
Description: (§2) H1 cells were maintained in […] growth for two days prior to the initiation of treatment. The cells were centrifuged at 600 g for 10 min. at room temperature to separate them from the medium containing pre-existing virus particles. The H1 cells were seeded in 24 well plates at a density of 1×10^5 cells per well in 2 ml of fresh medium with or without drug and incubated at 37° C. for 5 days. The medium containing virion was saved and used for evaluating the inhibitory effect of drugs on virus production and infectivity by use of a bioassay. The virion were pelleted from the cell free medium by centrifugation at 45,000 rpm for 90 min. in a SW-50 Ti rotor (Beckman). The virion were resuspended in 1 ml growth medium and then used to infect 1×10^6 Raji cells for 48 hours. Since the level of EBV DP activity in Raji cells post superinfection is proportional to the number of virions added, the EBV specific DP activity induced was able to be measured. The inhibitory drug effect was calculated by comparing the EBV DP activity to multiple dilution controls.
as §1
and compared with controls. H1 cells were treated for 5 days and the
ID90 was determined by bioassay.

[3] = tested on: HBV; experiment: Biological activity against HBV in 2.2.15 cells (HBV DNA, Southern analysis); type: cell-based; details: Hepatitis B virus, 144 h, read-out: Anti-HBV Activity ID50
Description: Human hepatoma cells with HBV (2.2.15 cells) were used in the assay. These cells were grown to confluence in minimal essential medium with 10% fetal bovine serum. The media was changed at 3-day intervals. At confluence the treatment with the drugs was initiated and then continued for three days. Another addition of the same concentration of the drug was given at this point after removal of the media from the cultures and cultures maintained for an additional period of 3 days. The medium after the 6-day treatment was harvested and the viral particles precipitated by the polyethylene glycol method. The particles were subsequently digested and then processed for Southern analysis. The blots were hybridized to an HBV-specific probe and viral DNA amounts assessed in comparison to DNA levels from cultures not treated with the drugs. The genomic DNA was digested with Hind III and subjected to Southern analysis. Levels of the episomal DNA were determined in relation to the integrated HBV DNA. The drug concentrations that cause 50% inhibition of the DNA (ID50) as compared to the controls were calculated.

[4] = tested on: mitochondrial DNA content in H1 cells; experiment: Mitochondrial DNA content of H1 cells (slot blot assay); type: cell-based, human; details: 1 mM, 6 days
Description: as §2
Slot Blot Assay--The amount of mitochondrial DNA was measured by the slot blot method (2). […] The amount of mitochondrial DNA in the treated and non-treated H1 cells was quantified by densitometer (LKB Ultroscan XL).

[5] = Clearance of L-(-)-FMAU from plasma after oral administration; type: in vivo; details: mice, 10 or 50 mg/kg
Description: (§3) The clearance of L-(-)-FMAU from the plasma and liver of mice after oral administration was evaluated. Mice were […] with L-(-)-FMAU which was tritium labeled (radiospecificity of […]).
(§4) FIG. 11 is a graph of the plasma concentration of L-(-)-FMAU in mice after oral administration over time, and FIG. 12 is a graph of the concentration of L-(-)-FMAU in mouse liver after oral administration over time (cross, 10 mg/kg administered bid (bi-daily) for 30 days prior to pharmacokinetic study and then study carried out on day thirty-one on administration of same concentration; dark circle, 50 mg/kg administered bid for 30 days prior to study and then study carried out on day thirty-one on administration of same concentration; open circle, 50 mg/kg administered for the first time on the first day of the study).
(§5) At the times indicated (see FIGS. […]) the mice were bled from their retro-orbital sinus using heparinized capillaries. The plasma was extracted with trichloroacetic acid and neutralized with freon/trioctylamine. Supernatants were directly counted and the concentration calculated.

[6] = Clearance of L-(-)-FMAU from liver after oral administration; type: in vivo; details: mice, 10 or 50 mg/kg
Description: as §3, §4, §5

[7] = Toxicity in BDF1 female mice (body weight over thirty days); type: in vivo; details: 10 mg/kg and 50 mg/kg bid
Description: FIG. 13a illustrates the change in body weight over thirty days of control BDF1 female mice. FIGS. 13b and 13c illustrate the change in body weight over thirty days of BDFI female mice dosed with 10 mg/kg (13b) and 50 mg/kg (13c) bid of L-(-)-FMAU. The body weight presented represents the mean and standard deviation of that of five to seven mice.

[8] = Clinical chemistry of mouse plasma after L-(-)-FMAU treatment; type: in vivo; details: 10 or 50 mg/kg bid, thirty days
Description: FIGS. 14-20 provide the clinical chemistry of mouse plasma after administration of L-(-)-FMAU at 10 mg/kg (three mice) or 50 mg/kg (three mice) bid for thirty days.

[9] = 37° C., 72 hours, Table 2, read-out: CD50
[10] = Table I, read-out: (H1 cells) CD50

O=c1[nH]c(=O)n([C@H]2O[C@@H](CO)[C@H](O)[C@H]2F)cc1I [L-FIAU, 2'-fluoro-5-iodo-β-L-arabinofuranosyluridine]
CC50 at 72 h [1, 9]: 240 ± 20 µM
Therapeutic Index (CD50/ID90) [2]: 12
IC90 [2]: 20 ± 4 µM

Nc1nc(=O)n([C@H]2O[C@@H](CO)[C@H](O)[C@H]2F)cc1I [L-FIAC, 2'-fluoro-5-iodo-β-L-arabinofuranosylcytosine]
CC50 at 72 h [1, 9]: 400 ± 35 µM
Therapeutic Index (CD50/ID90) [2]: > 40
IC90 [2]: < 10 µM

Cc1cn([C@H]2O[C@@H](CO)[C@H](O)[C@H]2F)c(=O)[nH]c1=O [L-FMAU, 2'-fluoro-5-methyl-β-L-arabinofuranosyluridine]
IC50 [3]: 0.1 µM
CC50 at 72 h [1, 10]: 1000 µM
Therapeutic Index (CD50/ID90) [2]: 200
Inhibition of mitochondrial DNA content [4]: No inhibition of mitochondrial DNA content in H1 cells was observed
Clearance from plasma [5]: substantially cleared from both plasma and liver after four hours
Time of peak concentration in plasma [5]: approximately one
Clearance from liver [6]: substantially cleared from both plasma and liver after four hours
Time of peak concentration in liver [6]: approximately one
Change in body weight [7]: did not appear to significantly affect the weight of the mice over thirty days
Tolerability [7]: well tolerated
ALT (SGPT) in mouse plasma [8]: With the exception of mouse 50-2 (for both SGOT and SGPT) and mouse 10-2 (for SGOT only), the enzyme levels of the treated mice are not different from those of the control mice
AST (SGOT) in mouse plasma [8]: With the exception of mouse 50-2 (for both SGOT and SGPT) and mouse 10-2 (for SGOT only), the enzyme levels of the treated mice are not different from those of the control mice
Creatinine in mouse plasma [8]: With the exception of mouse 50-2, the creatinine levels of the treated mice are not different from those of the control mice
Lactic acid in mouse plasma [8]: not significantly differnt from those of the control mice
Lactic dehydrogenase in mouse plasma [8]: not significantly differnt from those of the control mice
Alkaline phosphatase in mouse plasma ([8]; normal human level 30-114 U/L): somewhat higher than the normal human level
Total bilirubin in mouse plasma ([8]; normal human range less than 1.2 mg/dL): fall within the normal human range

Nc1nc2c(ncn2COC(CO)CO)c(=O)[nH]1 [DHPG]
CC50 at 72 h [1, 9]: 75 ± 6 µM
Therapeutic Index (CD50/ID90) [2]: 15

CCc1cn([C@H]2O[C@@H](CO)[C@H](O)[C@H]2F)c(=O)[nH]c1=O [L-FEAU, 2'-fluoro-5-ethyl-β-L-arabinofuranosyluridine]
CC50 at 72 h [1, 10]: 900 µM
Therapeutic Index (CD50/ID90) [2]: 15
IC90 [2]: 60 ± 11 µM

O=c1[nH]c(=O)n([C@@H]2O[C@H](CO)[C@@H](O)[C@@H]2F)cc1I [D-FIAU]
CC50 at 72 h [1, 9]: 20 ± 4 µM
Therapeutic Index (CD50/ID90) [2]: 40
IC90 [2]: 0.5 ± 0.05 µM

Nc1nc2c(ncn2CCC(CO)CO)c(=O)[nH]1 [PCV]
CC50 at 72 h [1, 9]: 500 ± 55 µM
Therapeutic Index (CD50/ID90) [2]: 25

O=C(O)P(=O)(O)O [PFA]
CC50 at 72 h [1, 9]: 1200 ± 100 µM
Therapeutic Index (CD50/ID90) [2]: 16

CCc1cn([C@@H]2O[C@H](CO)[C@@H](O)[C@@H]2F)c(=O)[nH]c1=O [D-FEAU]
CC50 at 72 h [1, 10]: 2000 µM
Therapeutic Index (CD50/ID90) [2]: 2000

Nc1nc2c(ncn2COCCO)c(=O)[nH]1 [ACV]
CC50 at 72 h [1, 9]: 1000 ± 75 µM
Therapeutic Index (CD50/ID90) [2]: 20

Cc1cn([C@@H]2O[C@H](CO)[C@@H](O)[C@@H]2F)c(=O)[nH]c1=O [D-FMAU]
IC50 [3]: 2 µM
CC50 at 72 h [1, 10]: 50 µM
Therapeutic Index (CD50/ID90) [2]: 50

Nc1nc(=O)n([C@@H]2O[C@H](CO)[C@@H](O)[C@@H]2F)cc1I [D-FIAC]
CC50 at 72 h [1, 9]: 125 ± 15 µM
Therapeutic Index (CD50/ID90) [2]: 25
IC90 [2]: 5 ± 0.5 µM
